# Source: patent US20240109930A1, “TRIAZOLYL-METHYL SUBSTITUTED ALPHA-D-GALACTOPYRANOSIDE DERIVATIVES” (Idorsia Pharmaceuticals Ltd, priority 2021, published 2024)
# pIC50: −log10 of the molar value.
# Columns and labels:
# human Gal-3 (hGal-3) = human Gal-3 (hGal-3) (Homo sapiens (Human), UniProt P17931); test: Competitive binding assay: biotinylated hGal-3 binding to microplate-adsorbed asialofetuin (ASF); settings: IC50 values from several measurements given as geomean
# Experimental: (§1) The inhibitory activity of compounds is determined in competitive binding assays. This spectrophotometric assay measures the binding of biotinylated human Gal-3 (hGal-3) or human Gal-1 (hGal-1), respectively, to a microplate-adsorbed glycoprotein, asialofetuin (ASF) (Proc Natl Acad Sci USA. 2013 Mar. 26; 110(13):5052-7.). Alternatively, and preferably, a human Gal-1 version in which all six cysteines are substituted by serines may be used.
# (§2) Briefly, compounds are serially diluted in DMSO (working dilutions). ASF-coated 384well plates are supplemented with 22.8 μL/well of biotinylated hGal-3 or hGal-1 in assay buffer (i.e. 300-1000 ng/mL biotinylated hGal-3 or hGal-1) to which 1.2 μL of compound working dilutions are added and mixed.
# (§3) Plates are incubated for 3 hours at 4° C., then washed with cold assay buffer (3×50 uL), incubated for 1 hour with 25 μL/well of a streptavidin-peroxidase solution (diluted in assay buffer to 80 ng/mL) at 4° C., followed by further washing steps with assay buffer (3×50 uL). Finally, 25 μL/well of ABTS substrate is added.
# (§4) The calculated IC50 values may fluctuate depending on the daily assay performance. Fluctuations of this kind are known to those skilled in the art. IC50 values from several measurements are given as geomean values.
# human Gal-1 (hGal-1) = human Gal-1 (hGal-1) (Homo sapiens, UniProt P09382, C131S/C17S/C43S/C61S/C89S); test: Competitive binding assay: biotinylated hGal-1 binding to microplate-adsorbed asialofetuin (ASF); settings: IC50 values from several measurements given as geomean
# Experimental: as §1, §2, §3, §4
# Sequence of human Gal-3 (hGal-3) (P17931 whole entry): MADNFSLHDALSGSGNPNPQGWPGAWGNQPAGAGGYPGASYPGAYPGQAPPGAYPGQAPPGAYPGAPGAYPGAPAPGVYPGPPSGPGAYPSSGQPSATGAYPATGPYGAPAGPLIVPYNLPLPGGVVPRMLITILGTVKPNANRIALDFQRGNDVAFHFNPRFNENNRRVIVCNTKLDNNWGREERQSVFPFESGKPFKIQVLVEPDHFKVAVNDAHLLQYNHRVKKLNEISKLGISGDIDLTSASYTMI
SMILES,pIC50 (human Gal-3 (hGal-3)),pIC50 (human Gal-1 (hGal-1))
CO[C@@H]1[C@@H](n2cc(-c3ccc(C)c(F)c3F)nn2)[C@@H](O)[C@@H](CO)O[C@@H]1Cc1cn(C23CC(C)(C2)C3)nn1 [Ex 1.1.14.],7.40,5.58
CO[C@@H]1[C@@H](n2cc(-c3ccc(C)c(F)c3F)nn2)[C@@H](O)[C@@H](CO)O[C@@H]1Cc1cn(C2(C)CC(F)(F)C2)nn1 [Ex 1.1.15.],7.52,5.75
CO[C@@H]1[C@@H](n2cc(-c3ccc(C)c(F)c3F)nn2)[C@@H](O)[C@@H](CO)O[C@@H]1Cc1cn(C2CC3(COC3)C2)nn1 [Ex 1.1.16.],7.30,5.43
CO[C@@H]1[C@@H](n2cc(-c3ccc(C)c(F)c3F)nn2)[C@@H](O)[C@@H](CO)O[C@@H]1Cc1cn(C2CC2C(C)C)nn1 (stereo partly drawn) [Ex 1.1.17.],6.96,5.30
CO[C@@H]1[C@@H](n2cc(-c3ccc(C)c(F)c3F)nn2)[C@@H](O)[C@@H](CO)O[C@@H]1Cc1cn(C2(CO)CC(F)(F)C2)nn1 [Ex 1.1.18.],7.30,5.83
CO[C@@H]1[C@@H](n2cc(-c3ccc(C)c(F)c3F)nn2)[C@@H](O)[C@@H](CO)O[C@@H]1Cc1cn([C@]2(C)C[C@H](O)C2)nn1 [Ex 1.1.19.],7.70,6.17
CO[C@@H]1[C@@H](n2cc(-c3ccc(C)c(F)c3F)nn2)[C@@H](O)[C@@H](CO)O[C@@H]1Cc1cn(C2[C@H]3CCC[C@@H]23)nn1 (stereo partly drawn) [Ex 1.1.20.],7.30,5.46
COCC1(n2cc(C[C@H]3O[C@H](CO)[C@H](O)[C@H](n4cc(-c5ccc(C)c(F)c5F)nn4)[C@H]3OC)nn2)COC1 [Ex 1.1.21.],7.40,6.08
CO[C@@H]1[C@@H](n2cc(-c3ccc(C)c(F)c3F)nn2)[C@@H](O)[C@@H](CO)O[C@@H]1Cc1cn(C2(CCO)COC2)nn1 [Ex 1.1.22.],7.40,6.16
CO[C@@H]1[C@@H](n2cc(-c3ccc(C)c(F)c3F)nn2)[C@@H](O)[C@@H](CO)O[C@@H]1Cc1cn(C2(C)CC2)nn1 [Ex 1.1.23.],7.70,5.97
CO[C@@H]1[C@@H](n2cc(-c3ccc(C)c(F)c3F)nn2)[C@@H](O)[C@@H](CO)O[C@@H]1Cc1cn(C23CC(C(F)(F)F)(C2)C3)nn1 [Ex 1.1.24.],7.10,5.30
CO[C@@H]1[C@@H](n2cc(-c3ccc(C)c(F)c3F)nn2)[C@@H](O)[C@@H](CO)O[C@@H]1Cc1cn(C23CC(F)(C2)C3)nn1 [Ex 1.1.25.],7.40,5.40
CO[C@@H]1[C@@H](n2cc(-c3ccc(C)c(F)c3F)nn2)[C@@H](O)[C@@H](CO)O[C@@H]1Cc1cn(C2CC3(CC3)C2)nn1 [Ex 1.1.26.],7.22,4.77
CO[C@@H]1[C@@H](n2cc(-c3ccc(C)c(F)c3F)nn2)[C@@H](O)[C@@H](CO)O[C@@H]1Cc1cn([C@]2(C)C[C@@H](O)C2)nn1 [Ex 1.1.27.],7.52,5.85
"CO[C@@H]1[C@@H](n2cc(-c3ccc(C)c(F)c3F)nn2)[C@@H](O)[C@@H](CO)O[C@@H]1Cc1cn(C2(C(F)F)COC2)nn1 [Ex 1.1.53., (2R,3R,4S,5R,6R)-4-(4-(2,3-difluoro-4-methylphenyl)-1H-1,2,3-triazol-1-yl)-6-((1-(3-(difluoromethyl)oxetan-3-yl)-1H-1,2,3-triazol-4-yl)methyl)-2-(hydroxymethyl)-5-methoxytetrahydro-2H-pyran-3-ol]",7.70,6.28
CO[C@@H]1[C@@H](n2cc(-c3ccc(C)c(F)c3F)nn2)[C@@H](O)[C@@H](CO)O[C@@H]1Cc1cn(C2(C(F)(F)F)COC2)nn1 [Ex 1.1.58.],7.52,6.10
CO[C@@H]1[C@@H](n2cc(-c3ccc(C)c(F)c3F)nn2)[C@@H](O)[C@@H](CO)O[C@@H]1Cn1cc(C2(CO)CC2)nn1 [Ex 1.2.4.],7.40,5.61
CO[C@@H]1[C@@H](n2cc(-c3ccc(C)c(F)c3F)nn2)[C@@H](O)[C@@H](CO)O[C@@H]1Cn1cc(C2(C)COC2)nn1 [Ex 1.2.6.],7.40,5.53
CO[C@@H]1[C@@H](n2cc(-c3ccc(C)c(F)c3F)nn2)[C@@H](O)[C@@H](CO)O[C@@H]1Cn1cc(C2(O)CCC2)nn1 [Ex 1.2.31.],7.22,5.42
CO[C@@H]1[C@@H](n2cc(-c3ccc(C)c(F)c3F)nn2)[C@@H](O)[C@@H](CO)O[C@@H]1Cn1cc(C2CCCC2)nn1 [Ex 1.2.32.],7.22,5.29
CO[C@@H]1[C@@H](n2cc(-c3ccc(C)c(F)c3F)nn2)[C@@H](O)[C@@H](CO)O[C@@H]1Cn1cc(C2(O)CCCC2)nn1 [Ex 1.2.33.],6.96,5.24

# The remaining lines, values ahead:
pIC50 (human Gal-3 (hGal-3)),pIC50 (human Gal-1 (hGal-1)),SMILES
7.10,5.27,"CO[C@@H]1[C@@H](n2cc(-c3ccc(C)c(F)c3F)nn2)[C@@H](O)[C@@H](CO)O[C@@H]1Cn1cc(C(C)(C)O)nn1 [Ex 1.2.34., (2R,3R,4S,5R,6R)-4-(4-(2,3-Difluoro-4-methylphenyl)-1H-1,2,3-triazol-1-yl)-2-(hydroxymethyl)-6-((4-(2-hydroxypropan-2-yl)-1H-1,2,3-triazol-1-yl)methyl)-5-methoxytetrahydro-2H-pyran-3-ol]"
7.15,5.35,CO[C@@H]1[C@@H](n2cc(-c3ccc(C)c(F)c3F)nn2)[C@@H](O)[C@@H](CO)O[C@@H]1Cn1cc(C2(O)CCOCC2)nn1 [Ex 1.2.35.]
7.10,5.11,CO[C@@H]1[C@@H](n2cc(-c3ccc(C)c(F)c3F)nn2)[C@@H](O)[C@@H](CO)O[C@@H]1Cn1cc(C2(O)CC2)nn1 [Ex 1.2.36.]
7.70,5.03,COC1=C(N2CC(c3ccc(C)c(F)c3F)NN2)C(O)=C(CO)O[C@@H]1Cn1cc(C23CCC(NC(=O)OC(C)(C)C)(CC2)CC3)nn1 (stereo partly drawn) [Ex 1.2.37.]
7.52,5.58,CCC1(c2cn(C[C@H]3O[C@H](CO)[C@H](O)[C@H](n4cc(-c5ccc(C)c(F)c5F)nn4)[C@H]3OC)nn2)COC1 [Ex 1.2.38.]
7.22,4.96,CO[C@@H]1[C@@H](n2cc(-c3ccc(C)c(F)c3F)nn2)[C@@H](O)[C@@H](CO)O[C@@H]1Cc1cn(C23CCC(N)(CC2)CC3)nn1 [Ex 1.2.39.]
7.40,5.52,CO[C@@H]1[C@@H](n2cc(-c3ccc(Cl)c(F)c3F)nn2)[C@@H](O)[C@@H](CO)O[C@@H]1Cc1cn(C2(CO)CC2)nn1 [Ex 2.1.4.]
7.22,5.65,CO[C@@H]1[C@@H](n2cc(-c3ccc(Cl)c(F)c3F)nn2)[C@@H](O)[C@@H](CO)O[C@@H]1Cc1cn(C2(CO)CCCC2)nn1 [Ex 2.1.5.]
7.40,6.12,CO[C@@H]1[C@@H](n2cc(-c3ccc(Cl)c(F)c3F)nn2)[C@@H](O)[C@@H](CO)O[C@@H]1Cc1cn(C2(C)COC2)nn1 [Ex 2.1.6.]
7.22,5.53,COCC1(n2cc(C[C@H]3O[C@H](CO)[C@H](O)[C@H](n4cc(-c5ccc(Cl)c(F)c5F)nn4)[C@H]3OC)nn2)CC1 [Ex 2.1.7.]
7.52,5.35,CO[C@@H]1[C@@H](n2cc(-c3ccc(Cl)c(F)c3F)nn2)[C@@H](O)[C@@H](CO)O[C@@H]1Cc1cn(C23CCC(O)(CC2)CC3)nn1 [Ex 2.1.8.]
7.40,5.78,CO[C@@H]1[C@@H](n2cc(-c3ccc(Cl)c(F)c3F)nn2)[C@@H](O)[C@@H](CO)O[C@@H]1Cc1cn(C(C)(C)CO)nn1 [Ex 2.1.9.]
7.30,5.60,CO[C@@H]1[C@@H](n2cc(-c3ccc(Cl)c(F)c3F)nn2)[C@@H](O)[C@@H](CO)O[C@@H]1Cc1cn(C2(CO)CCC2)nn1 [Ex 2.1.11.]
7.30,5.49,CO[C@@H]1[C@@H](n2cc(-c3ccc(Cl)c(F)c3F)nn2)[C@@H](O)[C@@H](CO)O[C@@H]1Cc1cn(C23CC(C2)C3)nn1 [Ex 2.1.12.]
7.70,6.16,CO[C@@H]1[C@@H](n2cc(-c3ccc(Cl)c(F)c3F)nn2)[C@@H](O)[C@@H](CO)O[C@@H]1Cc1cn(C2(C)CCC2)nn1 [Ex 2.1.13.]
7.30,5.46,CO[C@@H]1[C@@H](n2cc(-c3ccc(Cl)c(F)c3F)nn2)[C@@H](O)[C@@H](CO)O[C@@H]1Cc1cn(C23CC(C)(C2)C3)nn1 [Ex 2.1.14.]
7.30,5.77,CO[C@@H]1[C@@H](n2cc(-c3ccc(Cl)c(F)c3F)nn2)[C@@H](O)[C@@H](CO)O[C@@H]1Cc1cn(C2(C)CC(F)(F)C2)nn1 [Ex 2.1.15.]
7.05,5.23,CO[C@@H]1[C@@H](n2cc(-c3ccc(Cl)c(F)c3F)nn2)[C@@H](O)[C@@H](CO)O[C@@H]1Cc1cn(C2CC3(COC3)C2)nn1 [Ex 2.1.16.]
6.80,4.94,CO[C@@H]1[C@@H](n2cc(-c3ccc(Cl)c(F)c3F)nn2)[C@@H](O)[C@@H](CO)O[C@@H]1Cc1cn(C2CC2C(C)C)nn1 (stereo partly drawn) [Ex 2.1.17.]
7.40,5.55,CO[C@@H]1[C@@H](n2cc(-c3ccc(Cl)c(F)c3F)nn2)[C@@H](O)[C@@H](CO)O[C@@H]1Cc1cn(C2(CO)CC(F)(F)C2)nn1 [Ex 2.1.18.]
7.40,6.20,CO[C@@H]1[C@@H](n2cc(-c3ccc(Cl)c(F)c3F)nn2)[C@@H](O)[C@@H](CO)O[C@@H]1Cc1cn([C@]2(C)C[C@H](O)C2)nn1 [Ex 2.1.19.]
